Entries after “also recorded” stand apart in the source; their conditions may differ.
How the values were obtained:
[1] = tested on: lethally irradiated recipient mice; assay: Survival of lethally irradiated recipients of suboptimal BMMC from treated donors; assay type: in vivo
Text: FIGS. 14A and 14B are graphs showing survival analysis by the method of Kaplan-Meyer in lethally irradiated recipients of suboptimal BMMC (1.5×10^5 donor BMMC (A) and 0.75×10^5 donor BMMC (B)) from vehicle or PGE2-treated donors.
Moreover, since ST-HSC confer radioprotection, PGE2-dependent ST-HSC expansion would be expected to improve survival of lethally irradiated recipients receiving limiting numbers of BMMC from PGE2 vs vehicle-treated mice. To test this hypothesis, adult C57Bl/6 donor mice were treated with PGE2 or vehicle prior to bone marrow harvest. Recipient mice received myeloablative doses of radiation and suboptimal BMMC numbers (FIGS. 14A and 14B).

bone = assay: Bone analysis (microCT, histology) of PGE2-treated mice; assay type: in vivo
Description: FIG. 6A is a graph showing quantification of bone volume performed by microCT analysis of femora from mice treated with PGE2 (6 mg/kg i.p. daily for 16 days (n=8)).
Adult C57Bl/6 male mice were treated with PGE2 for 16 days.

[2] = design: species or system mice; details: mouse, in vivo
Text: FIG. 8 is a graph showing that intermediate progenitors of hematopoietic stem cells are not increased by PGE2 treatment. Therefore, PGE2 specifically increases HSCs. The bone marrow mononuclear cells from mice treated with vehicle and PGE2 using colony forming unit-cell (CF-C) activity in vitro. […] Peripheral white blood cell and hematocrit levels were not changed in PGE2 vs. vehicle treated mice at 16 days (WBC counts: vehicle averaged 5.75±0.20×10^3/μl; PGE2 averaged 4.72±0.61×10^3/μl) (Hematocrit: vehicle averaged 42±1%; PGE2 averaged 43±2%) (n=6 for each treatment group).
FIG. 8 is a graph showing that intermediate progenitors of hematopoietic stem cells are not increased by PGE2 treatment. Therefore, PGE2 specifically increases HSCs. The bone marrow mononuclear cells from mice were treated with vehicle and PGE2 to determine if there was an increase in intermediate progenitors in response to PGE2 using the colony forming unit-cell (CFU-C) assay. […] In addition, peripheral white blood cell and hematocrit levels were not changed in PGE2 vs. vehicle treated mice at 16 days (WBC counts: vehicle averaged 5.75±0.20×10^3/μl; PGE2 averaged 4.72±0.61×10^3/μl) (Hematocrit: vehicle averaged 42±1%; PGE2 averaged 43±2%) (n=6 for each treatment group).

hematopoietic stem cells = assay: HSC frequency by flow cytometric analysis of lin-, sca+, kit+ (LSK/KSL) bone marrow cells; assay type: in vivo, mice
Description: FIG. 7A is a graph showing KSL frequency at 4 days. FIG. 7B is a graph showing KSL frequency at 8 days. FIG. 7C is a graph showing KSL frequency at 12 days. FIG. 7D is a graph showing KSL frequency at 16 days.
FIG. 9 is a graph showing the percent of HSCs in total bone marrow following in vivo administration of PGE2 in C57bl/6 mice. Eight to ten week old WT C5bl/6 mice given IP injections twice daily for 16 days of either 6 mg/kg PGE2 or vehicle (n=4 for each group). The left hind limb of each mouse was harvested, the bone marrow flushed out and the cells stained with lineage markers, sca-1 and c-kit. DAPI was used for a viability stain. The lin−, sca+, kit+ population was gated using FlowJo software for both PGE2 treated and vehicle treated samples. There was a 66% increase in lin−, sca+, kit+ (LSK) cells in PGE2 vs. vehicle treated mice (p=0.0093). As used herein, LSK and KSL frequency are used interchangeably.
Eight to ten week old FVB/N male mice were injected intraperitoneally once or twice daily for 16 days with either PGE2 (6 mg/kg body weight) or vehicle. Left hind limbs were harvested, fixed, decalcified, and processed. Right hindlimbs were harvested at the same time. The bone marrow was flushed and stained for FACS analysis with scal, ckit, and lineage marker antibodies.
In order to determine if the number of HSCs was increased in vivo by PGE2, eight to ten week old FVB/N mice were given daily IP injections for 16 days of either 6 mg/kg PGE2 or Vehicle. The left hind limb of each mouse was harvested, the bone marrow was flushed out, and the cells were stained with lineage markers, sca-1 and c-kit. DAPI was used for a viability stain. The lin−sca+ckit+population was gated using FlowJo software (FlowJo, Ashland, Oreg.) for both PGE2 treated and VEH treated samples. […] The same procedure was performed on C57bl/g mice.

ST-HSC / LT-HSC activity = assay: Colony Forming Unit-Spleen (CFU-S) assay; assay type: in vivo, mice
Text: FIG. 13A show CFU-S images of selected spleens after fixation. FIGS. 13B and 13C are graphs showing quantification of colonies per spleen at days 8 (FIG. 13B) and 10 (FIG. 13C) after transplantation.
ST vs LT-HSC activity can also be quantified by the in vivo clonogenic Colony Forming Unit-Spleen (CFU-S) assay, where day 8 CFU-S is closely associated with ST-HSC, while day 10-12 CFU-S are associated with LT-HSC activity.

HSC subsets = assay: LSK subset analysis based on Flt3 and Thy1.1 expression; assay type: in vivo, mice
Description: FIGS. 12A and 12B are representative plots of flow cytometric strategy of LSK subset from bone marrow of individual vehicle and PGE2-treated mice, numbers in the quadrant represent percentage of LSK.
To further confirm this targeted PGE2 effect, LSK subset analysis based on Flt3 and Thy1.1 expression was performed. […] (n=4 per treatment group).

HES1 = assay: Notch target gene HES1 expression by real time RT-PCR; assay type: cell-based; details: UMR 206 cells, PGE2 treatment, starting at 24 hours
Description: FIG. 3 is a graph showing that PGE2 treatment in UMR 206 cells increased expression of the Notch target gene HES1 as determined by real time RT-PCR analysis starting at 24 hours.
At the designated times, total RNA and protein were harvested. Total RNA was extracted and analyzed by real time RT-PCR, normalizing for β-actin expression and t=0. Total protein was analyzed by Western blots performed using the XCELL SURELOCK™ system (Invitrogen, Carlsbad, Calif.). Blots were probed with Jag1 c-20 antibody (Santa Cruz Biotechnology, Inc., Santa Cruz, Calif.), and the loading control was B-actin.

CCCCC[C@H](O)/C=C/[C@H]1[C@H](O)CC(=O)[C@@H]1C/C=C\CCCC(=O)O [PGE2, Prostaglandin E2]
survival 30 days after transplantation ([1]; 75,000 donor cells from treated donors, p=0.0173): 53% | survival 30 days after transplantation ([1]; 150,000 donor cells from treated donors, p=0.0018): 80% | bone anabolic effect in long bones, histologically or by micro-CT imaging (bone; adult C57Bl/6 male mice, 16 days): no evidence of a significant bone anabolic effect | bone volume by microCT analysis (bone; adult FVB/N male mice, 6 mg/kg/day i.p., day 12): no significant increase | cortical width of the tibia (bone; in vivo treatment with PGE2): significantly increased | tibial metaphyseal trabecularization (bone; in vivo treatment with PGE2): increased | Hematocrit [2]: 43±2% | peripheral platelets [2]: not changed | increase in lin−, sca+, kit+ (LSK) cells vs. vehicle (hematopoietic stem cells; C57bl/6 mice, 6 mg/kg IP twice daily for 16 days, n=4): 66% | percent of HSCs (KSL) in total bone marrow (hematopoietic stem cells; FVB/N mice, 6 mg/kg IP daily, 4 to 16 days, vs vehicle, 6 mg/kg): trend towards an increase; also recorded: increased significantly | increase of HSC enriched LSK subpopulation (hematopoietic stem cells; adult C57Bl/6 male mice, 16 days, n=8 per group): 3.5 fold | CFU-Sd8 (ST-HSC / LT-HSC activity; day 8, BMMC from treated mice, n=4, p=0.0053): 10.5 CFU-S per 60,000 BMMC | CFU-Sd10 (ST-HSC / LT-HSC activity; day 10, BMMC from treated mice, n=6, p=0.4950): 12.5 CFU-S per 60,000 BMMC | MPP (Flt3+Thy1.1- LSK) quantification from bone marrow (HSC subsets; n=4, p 0.007 vs vehicle): 0.0305 ± 0.002398 | ST-HSC (Flt3+Thy1.1int LSK) quantification from bone marrow (HSC subsets; n=4, p 0.0307 vs vehicle): 0.02725 ± 0.003568 | LT-HSC (Flt3−Thy1.1int LSK) quantification from bone marrow (HSC subsets; n=4, p 0.1069 (NS) vs vehicle): 0.01264 ± 0.002233 | expression of the Notch target gene HES1 (HES1): increased

Source: patent US9394520B2, “Expansion of hematopoietic stem cells” (University of Rochester, priority 2006, dated 2016)
